Assay in all cases: inhibition of tumour cell growth, NCI panel, 48 h
In test [1] the test system is 786-0 renal.
Test [2] relates to A549 NSCLC.
Test [3] concerns HL-60(TB) leukemia.
The test system of test [4] is HOP-62 NSCLC.
Test [5] concerns KM12 colon.
The test system of test [6] is NCI-H460 lung.
Test [7] has as its system SF-295 CNS.
Test [8] concerns NCI-H226 lung.
Test [9] concerns DU-145 prostate.

Structures are written as SMILES.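 Protocol summary: plate cells (96-well), add compound at 5 concentrations, incubate 48 h, interpolate endpoints linearly. GI50 marks 50% less growth. TGI: total growth inhibition.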

These results are taken from PubChem BioAssay (NCI).

Turning to `CC(=O)N/N=C1\CC(C)(C)C2CCC1C2` (stereo unspecified), the TGI in test [1], in test [2], in test [3], in test [4], in [5] and in test [6] was over 100 µM each time. The molecule also had a TGI in [7] of over 100 µM.
As to `COc1ccc(NC(=O)CC2SC(=Nc3ccccc3C)NC2=O)c([N+](=O)[O-])c1` (stereo unspecified), the TGI in test [1], in test [2], in test [3], in test [4], in test [5] and in test [8] was over 100 µM in each case. Further, the TGI in test [6] and in test [7] was over 100 µM each time.
Consider `CC1/C=C/[C@@]2(C)CCC(C(C)(C)O)C2C(O)C[C@](C)(O)/C=C/C1` (stereo partly specified), for which the TGI is over 100 µM in test [1]; over 100 µM in test [2]; over 100 µM in test [3]; over 100 µM in test [4]; over 100 µM in test [5]; 52 µM in test [8]. The TGI in test [6] and in [7] was over 100 µM throughout.
Consider `O=C1c2ccccc2-[n+]2ccc3c([nH]c4ccccc43)c21`, for which the TGI in test [1] was 2.58 µM; in test [2], 2.7 µM; in test [9], 2.54 µM; in [3] it was 1.38 µM; in test [4], 2.56 µM; in test [5] it was 0.636 µM. Moreover, the TGI in test [8] is 3.08 µM; in test [6] it was 1.43 µM; in test [7] it was 1.04 µM.
As for `O=c1/c(=C/c2ccccc2[N+](=O)[O-])sc2nc3ccccc3n12`, the TGI in test [1], in test [2], in test [3], in test [4], in test [5] and in [8] was over 46.4 µM throughout. Also, the TGI was over 46.4 µM in test [6] and 41.4 µM in test [7].
Regarding `Cc1ccc(NC(=O)CCc2nc(N)nc(N)c2-c2ccccc2)cc1C`, the TGI in test [1], in test [2], in test [3], in [4], in [5] and in [8] was over 100 µM each time. Also, the TGI in test [6] and in test [7] was over 100 µM throughout.
As for `CC1=Nc2c(ccc3c2C(=O)c2ccccc2C3=O)NC(c2cccc3c2CCC3)C1` (stereo unspecified), the TGI in test [1], in test [2], in test [3], in test [4], in test [5] and in test [8] was over 100 µM throughout. Besides, the TGI in test [6] and in [7] was over 100 µM in each case.
Turning to `COc1ccc(OC)c(NC(=O)CCC/C(CC(=O)c2ccc(O)c(OC)c2)=N\Nc2nnc(C)n2N)c1`, the TGI in test [1], in test [2], in test [3], in test [4], in test [5] and in [8] was over 100 µM each time. The TGI in [6] and in test [7] was over 100 µM in each case.
With `Cc1nn[n-]n1.N.N.N.N.N.[Cl-].[Co+3]`, the GI50 in test [1], in test [2], in [3], in test [4], in test [5] and in [8] was over 100 µM in each case. Besides, the GI50 in [6] and in test [7] was over 100 µM each time. Further, the TGI in [1], in [2], in test [3], in [4], in test [5] and in test [8] was over 100 µM in each case. In addition, the TGI in test [6] and in test [7] was over 100 µM in each case.
Turning to `CCC1CC2C(=O)N(c3ccccc3)C(=O)C2c2[nH]c3ccccc3c21` (stereo unspecified), the TGI in test [1] was 47.6 µM; in test [2], over 100 µM; in test [3], 98 µM; in test [5], over 100 µM; in test [8] it was 33.8 µM; in test [6], 64.6 µM. This molecule displayed a TGI in [7] of 29.8 µM.
Take `COC12CCC(=O)C=C1c1ccccc1N2C(C)=O` (stereo unspecified): the TGI in test [1], in test [2], in test [3], in test [4], in test [5] and in [6] was over 100 µM in each case. This molecule also registered a TGI in test [7] of over 100 µM.
In the case of `CCCNC(=O)C1C(=O)C(=O)N(CCC)C1=O` (stereo unspecified), the TGI in test [1], in test [2], in test [4], in [5] and in test [6] was over 100 µM each time.
As to `C=C(CC(NC(=O)c1ccc(C(CC)Cc2cnc3nc(N)nc(N)c3n2)cc1)C(=O)O)C(=O)O` (stereo unspecified), the GI50 in [1] is 0.0257 µM. The TGI is 5.17 µM in test [1]; over 100 µM in test [2]; over 100 µM in test [3]; 0.742 µM in test [4]; over 100 µM in [8]; over 100 µM in [6].
For `O=C(CCC(=O)Nc1ccc(Cl)c(Cl)c1)CC(=O)c1ccc(Br)cc1`, the TGI in test [1], in [2], in [5] and in test [8] was over 100 µM throughout.
Take `CCOC(=O)C1=C(Nc2ccc(Cl)cc2Cl)OCC1=O`: the TGI in [1], in [2], in test [3], in test [4], in [5] and in test [8] was over 100 µM in each case. For the same molecule, the TGI in test [6] and in test [7] was over 100 µM each time.
As to `CC1=CC(=O)CC2(C)CC[C@@H]3C[C@]12OC3(C)C` (stereo partly specified), the TGI in test [1], in test [2], in test [3], in test [4], in [5] and in [8] was over 100 µM in each case. Besides, the TGI in test [6] and in test [7] was over 100 µM in each case.
